The results in this text go back to US20150196033A1, “PESTICIDAL COMPOSITIONS AND PROCESSES RELATED THERETO” (priority 2012, published 2015).

The test system of assay [1] is Beet Armyworm (BAW) (Spodoptera exigua). Kind of assay: Bioassay on Beet Armyworm (BAW), 128-well diet tray assay. It is filed as in vivo. The note with it: Spodoptera exigua, 168 h; for mortality at 50 µg/cm2: read-out: Rating BAW (% Control (or Mortality)). As to the method:
(§1) Certain molecules disclosed in this document were tested against BAW and CEW using procedures described in the following examples. In the reporting of the results, the “BAW & CEW Rating Table” was used (See Table Section).
Bioassays on BAW (Spodoptera exigua)
(§2) Trays were covered with a clear self-adhesive cover and held at 25° C., 14:10 light-dark for five to seven days. Percent mortality was recorded for the larvae in each well; activity in the eight wells was then averaged. The results are indicated in the table entitled “Table ABC: Biological Results” (See Table Section).

Assay [2] deals with Corn Earworm (CEW) (Helicoverpa zea). Kind of assay: Bioassay on Corn Earworm (CEW), 128-well diet tray assay. Type of assay: in vivo. The following applies: Helicoverpa zea, 168 h; for mortality at 50 µg/cm2: read-out: Rating CEW (% Control (or Mortality)); for mortality at 0.5 µg/cm2: 0.5 μg/cm2 on artificial diet, read-out: Rating CEW (% Control (or Mortality)), *Tested at 0.5 μg/cm2. As to the method: as §1
Bioassays on CEW (Helicoverpa zea)
as §2

Where [3] appears, read: 50 μg/cm2 on artificial diet, second instar larvae, five to seven days.
The mark [4] stands for this setting: second instar larvae, five to seven days.

Read-outs that look alike come from different tables or passages of the source.

Turning to `CC(C)c1cccc(Cl)c1N/C(S)=N/C(=O)Nc1ccc(-c2ncn(-c3ccc(OC(F)(F)F)cc3)n2)cc1` [Molecule A81], the mortality at 50 µg/cm2 in assay [1] (setting [3]) and in assay [2] (setting [3]) was 50 to 100% throughout.

Regarding `CC(C)c1ccc(F)cc1N1C(=O)CS/C1=N\C(=O)Nc1ccc(-c2ncn(-c3ccc(OC(F)(F)F)cc3)n2)cc1` [Molecule A86], the mortality at 50 µg/cm2 in assay [1] (setting [3]) was 50 to 100%. The mortality at 0.5 µg/cm2 in assay [2] (setting [4]) is 50 to 100%.

Consider `O=C(/N=C1\SCC(=O)N1c1ccccc1Cc1ccccc1)Nc1ccc(-c2ncn(-c3ccc(OC(F)(F)F)cc3)n2)cc1` [Molecule A105], for which, in assay [1] (setting [3]), the mortality at 50 µg/cm2 was in the range of 50 to 100%. Also, in assay [2] (setting [4]), the mortality at 0.5 µg/cm2 is 50 to 100%.

In the case of `CCC(C)c1ccccc1N/C(=N\C(=O)Nc1ccc(-c2ncn(-c3ccc(OC(F)(F)F)cc3)n2)cc1)SCOC(=O)C(C)C` (stereo not shown) [Molecule A54], the mortality at 50 µg/cm2 in assay [1] (setting [3]) and in assay [2] (setting [3]) was 50 to 100% throughout.

Consider `Cc1cccc(C)c1-n1c(C)cs/c1=N\C(=O)Nc1ccc(-c2ncn(-c3ccc(OC(F)(F)F)cc3)n2)cc1` [Molecule A42], for which the mortality at 50 µg/cm2 was 0 to 50% in assay [1] (setting [3]) and 0% in assay [2] (setting [3]).

As to `CC(C)c1ccccc1N1C(=O)CS/C1=N\C(=O)Nc1ccc(-c2ncn(-c3ccc(OC(F)(F)F)cc3)n2)cc1` [Molecule A19, (Z)-1-(3-(2-isopropylphenyl)-4-oxothiazolidin-2-ylidene)-3-(4-(1-(4-(trifluoromethoxy)phenyl)-1H-1,2,4-triazol-3-yl)phenyl)urea], the mortality at 50 µg/cm2 in assay [1] (setting [3]) and in assay [2] (setting [3]) was 50 to 100% in each case.

As to `O=C(/N=C(\S)Nc1ccccc1C(F)(F)F)Nc1ccc(-c2ncn(-c3ccc(OC(F)(F)F)cc3)n2)cc1` [Molecule A127], the mortality at 50 µg/cm2 in assay [1] (setting [3]) was 50 to 100%; in assay [2] (setting [3]) it was 0%.

For the compound `CCc1cccc(C)c1N/C(=N\C(=O)Nc1ccc(-c2ncn(-c3ccc(OC(F)(F)F)cc3)n2)cc1)SCOC(=O)C(C)C` [Molecule A55], the mortality at 50 µg/cm2 in assay [1] (setting [3]) and in assay [2] (setting [3]) was 50 to 100% each time.

Take `Cc1cc(C)c(N2C(=O)CS/C2=N\C(=O)Nc2ccc(-c3ncn(-c4ccc(OC(F)(F)F)cc4)n3)cc2)c(C)c1` [Molecule A36]: the mortality at 50 µg/cm2 in assay [1] (setting [3]) and in assay [2] (setting [3]) was 50 to 100% throughout.

Consider `CC(C)c1cccc(N2C(=O)CS/C2=N\C(=O)Nc2ccc(-c3ncn(-c4ccc(OC(F)(F)F)cc4)n3)cc2)c1` [Molecule A120], for which the mortality at 50 µg/cm2 in assay [1] (setting [3]) and in assay [2] (setting [3]) was 0% throughout.

Regarding `CC(C)c1ccccc1N/C(S)=N/C(=O)Nc1ccc(-c2ncn(-c3ccc(C(F)(F)C(F)(F)C(F)(F)F)cc3)n2)cc1` [Molecule A113], the mortality at 50 µg/cm2 was 50 to 100% in assay [1] and 0% in assay [2].

Regarding `Cc1cc(C)c(N2CC(C)CS/C2=N\C(=O)Nc2ccc(-c3ncn(-c4ccc(OC(F)(F)F)cc4)n3)cc2)c(C)c1` (stereo not shown) [Molecule A41], the mortality at 50 µg/cm2 in assay [1] (setting [3]) and in assay [2] (setting [3]) was 50 to 100% in each case.

In the case of `O=C(/N=C1\SCC(=O)N1c1ccccc1C(F)(F)F)Nc1ccc(-c2ncn(-c3ccc(OC(F)(F)F)cc3)n2)cc1` [Molecule A128], the mortality at 0.5 µg/cm2 lay within 50 to 100% in assay [1] (0.5 μg/cm2 on artificial diet, second instar larvae, five to seven days, read-out: Rating BAW (% Control (or Mortality)), *Tested at 0.5 μg/cm2) and 50 to 100% in assay [2] (setting [4]).

`Cc1cccc(N2C(=O)CS/C2=N\C(=O)Nc2ccc(-c3ncn(-c4ccc(OC(F)(F)F)cc4)n3)cc2)c1C` [Molecule A75]: the mortality at 50 µg/cm2 in assay [1] (setting [3]) was 50 to 100%. The mortality at 0.5 µg/cm2 in assay [2] (setting [4]) lay in the range of 50 to 100%.

On to `Cc1cccc(N/C(S)=N/C(=O)Nc2ccc(-c3ncn(-c4ccc(OC(F)(F)F)cc4)n3)cc2)c1C(C)C` [Molecule A106], for which, in assay [1] (setting [3]), the mortality at 50 µg/cm2 fell in the range of 50 to 100%. In assay [2] (setting [4]), the mortality at 0.5 µg/cm2 is 50 to 100%.

As to `CC(C)c1c(F)cccc1N/C(S)=N/C(=O)Nc1ccc(-c2ncn(-c3ccc(OC(F)(F)F)cc3)n2)cc1` [Molecule A107], the mortality at 50 µg/cm2 in assay [1] (setting [3]) lay within 50 to 100%. The mortality at 0.5 µg/cm2 in assay [2] (setting [4]) fell in the range of 50 to 100%.

With `CC(C)c1ccccc1N/C(S)=C(\C#N)C(=O)Nc1ccc(-c2ncn(-c3ccc(OC(F)(F)F)cc3)n2)cc1` [Molecule A25, (Z)-2-cyano-3-((2-isopropylphenyl)amino)-3-mercapto-N-(4-(1-(4-(trifluoromethoxy)phenyl)-1H-1,2,4-triazol-3-yl)phenyl)acrylamide], the mortality at 50 µg/cm2 in assay [1] (setting [3]) is 0%; in assay [2] (setting [3]) it was 0 to 50%.

Take `Cc1ccc(N/C(S)=N/C(=O)Nc2ccc(-c3ncn(-c4ccc(OC(F)(F)F)cc4)n3)cc2)c(C(C)C)c1` [Molecule A84]: the mortality at 50 µg/cm2 in assay [1] (setting [3]) fell in the range of 50 to 100%. In addition, the mortality at 0.5 µg/cm2 in assay [2] (setting [4]) fell in the range of 50 to 100%.

`Cc1ccc(Cl)cc1N1C(=O)CS/C1=N\C(=O)Nc1ccc(-c2ncn(-c3ccc(OC(F)(F)F)cc3)n2)cc1` [Molecule A76]: in assay [1] (setting [3]), the mortality at 50 µg/cm2 fell in the range of 50 to 100%. Moreover, the mortality at 0.5 µg/cm2 in assay [2] (setting [4]) was in the range of 50 to 100%.

For the compound `COc1ccc(N/C(S)=N/C(=O)Nc2ccc(-c3ncn(-c4ccc(OC(F)(F)F)cc4)n3)cc2)c(C)c1` [Molecule A98], the mortality at 50 µg/cm2 in assay [1] (setting [3]) is 50 to 100%. For the same compound, the mortality at 0.5 µg/cm2 in assay [2] (setting [4]) fell in the range of 50 to 100%.

Take `CC(C)c1cc(F)ccc1N/C(S)=N/C(=O)Nc1ccc(-c2ncn(-c3ccc(OC(F)(F)F)cc3)n2)cc1` [Molecule A116]: the mortality at 50 µg/cm2 in assay [1] (setting [3]) is 50 to 100%. Moreover, the mortality at 0.5 µg/cm2 in assay [2] (setting [4]) lay within 50 to 100%.

For the compound `CCc1ccccc1N/C(=N\C(=O)Nc1ccc(-c2ncn(-c3ccc(OC(F)(F)F)cc3)n2)cc1)SCOC(=O)C(C)C` [Molecule A57], the mortality at 50 µg/cm2 in assay [1] (setting [3]) and in assay [2] (setting [3]) was 50 to 100% in each case.

For the compound `CC(C)c1ccccc1N1C(=O)CS/C1=C(/C#N)C(=O)Nc1ccc(-c2ncn(-c3ccc(OC(F)(F)F)cc3)n2)cc1` [Molecule A31, (Z)-2-Cyano-2-(3-(2-isopropylphenyl)-4-oxothiazolidin-2-ylidene)-N-(4-(1-(4-(trifluoromethoxy)phenyl)-1H-1,2,4-triazol-3-yl)phenyl)acetamide], the mortality at 50 µg/cm2 in assay [1] (setting [3]) and in assay [2] (setting [3]) was 50 to 100% in each case.

With `Cc1cccc(N2C(=O)CS/C2=N\C(=O)Nc2ccc(-c3ncn(-c4ccc(OC(F)(F)F)cc4)n3)cc2)c1C(C)C` [Molecule A108], the mortality at 50 µg/cm2 in assay [1] (setting [3]) lay in the range of 50 to 100%. In addition, in assay [2] (setting [4]), the mortality at 0.5 µg/cm2 is 50 to 100%.

Take `Cc1ccc(N/C(S)=N/C(=O)Nc2ccc(-c3ncn(-c4ccc(OC(F)(F)F)cc4)n3)cc2)c(Cl)c1` [Molecule A73]: the mortality at 50 µg/cm2 in assay [1] (setting [3]) is 50 to 100%. Besides, the mortality at 0.5 µg/cm2 in assay [2] (setting [4]) was in the range of 50 to 100%.

As to `Cc1ccc(C(C)C)c(N2C(=O)CS/C2=N\C(=O)Nc2ccc(-c3ncn(-c4ccc(OC(F)(F)F)cc4)n3)cc2)c1` [Molecule A87], the mortality at 50 µg/cm2 in assay [1] (setting [3]) is 50 to 100%. Besides, in assay [2] (setting [4]), the mortality at 0.5 µg/cm2 is 50 to 100%.
